Source: a melting point compilation (Tetko et al.; mined from patent text by program, amines drawn as free bases though some values may be those of a salt)

Row | Compound | melting point [°C]
1 | COC(=O)c1ccc(CCl)nc1C1=NC(C)(C(C)C)C(=O)N1 (configuration not stated) | 127 to 129
2 | CC(=O)NC(Cc1ccccc1)C1CC(Cc2ccccc2)=NO1 (configuration not stated) | 97.8 to 98.4
3 | COC(=O)C(NC(=O)c1c(F)cccc1F)c1ccc(Br)s1 (configuration not stated) | 123 to 124
4 | CCOC(=O)Cn1nnnc1C(=O)OCC | 26 to 29.5
5 | COc1ccc(C(=CC(=O)N2CCOCC2)c2ccc(Oc3nc(Cl)nc(Cl)n3)cc2)cc1OC | 90 to 100
6 | COc1ccc2c(c1)OC(CN1CC=C(c3c[nH]c4ccccc34)CC1)CO2 (configuration not stated) | 166 to 168
7 | CC1(C)CCC(C)(C)c2cc(C#Cc3ccc(C(=O)O)cc3)ccc21 | 252 to 256
8 | CC12CC(=O)C3C(CCC4CC5OC5CC43C)C1CCC2=O (configuration not stated) | 166 to 167
9 | CCC(C)(C)c1cc(C(=O)O)c(O)c(C(C)(C)CC)c1 | 132 to 133
10 | COc1cc(OC)c2c(=O)[nH]c(-c3cc(C)c(OCCCCN4CCCC4)c(C)c3)nc2c1 | 180 to 181
11 | CSc1ccc(/C=C2/C(C)=C(CCCCN(O)C(N)=O)c3cc(F)ccc32)cc1 | 154 to 157
12 | COc1cc2c(cc1OC(C)C)OC(C)(C)C(Cl)=C2Cl | 80 to 85
13 | CCOC(=O)C(=O)Nc1c([N+](=O)[O-])cc(C(C)=O)c2c1CCCC2 | 120 to 121
14 | Cn1c(C#N)ccc1-c1ccc2c(c1)C(C)(C)OC(=S)N2 | 228 to 229
15 | CC1=CC(OC(=O)c2nc[nH]c2C)C(O)C(C)(C)CC1=O (configuration not stated) | 99 to 101
16 | CCOC(=O)C1Cc2cc(-c3noc4ccccc34)c(Cl)c(Cl)c2O1 (configuration not stated) | 114 to 116
17 | O=C(O)[C@@H]1CSC(=O)N1Cc1ccccc1 | 95 to 97
18 | COc1ccccc1C1=C(C#N)C(c2ccccc2[N+](=O)[O-])c2c[nH]nc2N1 (configuration not stated) | 207
19 | Cc1nc2c(cnn2-c2c(Cl)cc(C(F)(F)F)cc2Cl)c(=O)n1C | 195
20 | CCCCC(CCCc1cccnc1)CC(NS(=O)(=O)c1ccc(Cl)cc1)C(=O)O (configuration not stated) | 113 to 114
21 | O=Cc1c2n(c3ccccc13)CCNCC2 | 167 to 168
22 | O=c1ccn(C(OC2CCCCO2)c2ccccn2)cc1 (configuration not stated) | 173 to 176
23 | OC(CCN1CC=C(c2ccc(Cl)cc2)CC1)c1ccc(Cl)cc1 (configuration not stated) | 154 to 155
24 | CN(CC(=O)O)C(=O)c1cccc2c(Br)cccc12 | 205

Row | Compound | melting point [°C]
25 | CCOC(=O)c1n[nH]cc1-c1ccccc1 | 164 to 165
26 | CNC(=O)c1c(SC)c2cc(OC)ccc2n1C | 137 to 139
27 | Cc1ccnc(-c2ccc(Br)cc2)c1 | 126
28 | N#CC=Cc1ccc(NC(=O)C=CC=C(Nc2cc(Cl)cc(Cl)c2I)C(=O)OCc2ccccc2)cc1 | 132 to 134
29 | CCCn1cc(-c2nc(C(N)=O)c(N)nc2-c2ccccc2)ccc1=O | > 250
30 | CN1CCN(c2cccc3c2C[C@H](NC(=O)c2ccc(-c4ccc(O)cc4)cc2)CC3)CC1 | 261 to 262
31 | COc1ccccc1-n1c(=O)[nH]c2c(C(N)=O)nc(Nc3ccc(O)cc3)nc21 | 223 to 224
32 | O=C(O)c1nc(-c2ccc(Cl)cc2Cl)n(-c2ccc(Cl)cc2)c1CO | 138
33 | Cc1oc(-c2ccc(-c3ccc(-c4nc(CCO)c(C)o4)cc3)cc2)nc1CCO | 134 to 135
34 | CC(C)(O)CCCCCc1ccc(CCc2cc(O)cc(O)c2)cc1 | 128 to 130
35 | C#CCN(Cc1ccc2nc[nH]c(=O)c2c1)c1ccc(C(=O)NCc2cccc([N+](=O)[O-])c2)cc1 | 93 to 96
36 | CC(C)N1OCCC(=Cc2cc(C(C)(C)C)c(O)c(C(C)(C)C)c2)C1=O | 181 to 183
37 | CC(C)c1c(C(=O)Nc2ccc(O)cc2)c(-c2ccccc2)c(-c2ccc(F)cc2)n1CC[C@@H]1C[C@@H](O)CC(=O)O1 | 130 to 133
38 | ClCCCOc1ccccc1Nc1nc(Cl)nc2[nH]cnc12 | 205
39 | Cc1cc(Br)n2ccnc2c1 | 53 to 54
40 | Fc1ccccc1NC1(c2nnn[nH]2)CCN(Cc2ccccc2)CC1 | 195 to 198
41 | Cc1cccc(NC(=O)NC2N=C(CC(C)C)c3cccc(C)c3N(CC(=O)N3CC4CCC(CC4)C3)C2=O)c1 (configuration not stated) | 134 to 135
42 | CN(Cc1ccc(-c2ccc(O)c(Br)c2)cc1)C(=O)c1cn(Cc2ccccc2)c2ccccc12 | 164 to 170
43 | OCCn1cnc2c(Cl)nc3ccccc3c21 | 185 to 187
44 | COc1cc(CSC(=S)N(C)C)nc(N)n1 | 118 to 120
45 | CC(=NO)C(C)(C)NOCCNC(C)(C)C(CCN1C(=O)c2ccccc2C1=O)=NO | 74 to 75
46 | CCOC(=O)Nc1ccc2c(c1)C(c1ccccc1Cl)=CCC(=O)N2 | 241
47 | N#Cc1cc(-c2cc(C(F)F)c3cn[nH]c3n2)ccc1N | 263

Next, values leading:

Row | melting point [°C] | Compound
48 | 60 to 63 | CC(C)(C)N(NC(=O)c1ccccc1)C(=O)c1cccnc1
49 | 192 to 194 | COC(=O)C(NS(=O)(=O)c1ccc(-c2ccc(NC(=O)c3oc4cccc(C5COC(C)(C)O5)c4c3C)cc2)cc1)C(C)C (configuration not stated)
50 | 159 to 163 | Nc1cc(Cl)nc(SC/C=C/C(=O)N2CCCCC2)n1
51 | 97 | CCOc1cc2c(cc1OCC)C(=C(C#N)SCC(O)CN1CCOCC1)NCC2 (configuration not stated)
52 | 148 to 151 | CCCCC(=O)OC(C)OC(=O)NC1(C(=O)O)CC1 (configuration not stated)
53 | 95 to 97 | CC(=O)NCCC1CCc2ccc3nc(CCCc4ccccc4)oc3c21 (configuration not stated)
54 | 295 | COc1ccc2ccc(NC(=O)c3cccc(O)c3)nc2n1
55 | 177 to 179 | COC(=O)C1=C(C)NC(C)=C(C(=O)OC)C1C1CCC(C(=O)O)C1 (configuration not stated)
56 | 153 | CCOc1ccc(-c2ncc(C#N)cn2)cc1
57 | 136 | O=CNC(c1cccc(Cl)c1)c1ccnc2ccccc12 (configuration not stated)
58 | 167 to 169 | Nc1nc(SC2CCCC2)c2ncn(C3C=CC(CO)C3)c2n1 (configuration not stated)
59 | 209 to 211 | CCc1nc2cc(/C=C/C(=O)NO)ccc2c(=O)n1CCc1ccccc1
60 | 285 to 287 | O=C(O)c1cn(C2CC2)c2c(C(F)(F)F)c(N3CCN(c4ncccn4)CC3)c(F)cc2c1=O
61 | 198 | O=C(NCc1ccc(C(F)(F)F)c(F)c1)Nc1cccc2[nH]ccc12
62 | 262 to 265 | O=c1cc(Oc2cccc(OCc3ccccc3)c2)c2ccccc2[nH]1
63 | 138 to 140 | COC(=O)c1ccc(C[C@@H]2COc3ccc(OCc4ccc5ccccc5n4)cc3[C@H]2O)cc1 (relative stereo)
64 | 135 | O=C(COc1cc(-c2ccccc2)nc2ccccc12)N1CCCC1
65 | 245 | CCOC(=O)C1=C(N)NC2=C(C(=O)CCC2)C1c1ccccc1Br (configuration not stated)
66 | 169 to 172 | O=C(Nc1c([N+](=O)[O-])cnn1-c1c(Cl)cc(C(F)(F)F)cc1Cl)C1CCCO1 (configuration not stated)
67 | 162 to 163 | CS(=O)(=O)Cc1cc(C(=O)C=NCCCCCCN=CC(=O)c2ccc(OCc3ccccc3)c(CS(C)(=O)=O)c2)ccc1OCc1ccccc1
68 | 58 to 59 | COc1ccc(CS(=O)(=O)C(C)(Cc2ccccc2)C(=O)N(O)O)cc1 (configuration not stated)
69 | 141 | C=CC(O)c1ccc2[nH]c(CCCC)nc(=O)c2c1 (configuration not stated)
70 | 86.4 to 86.5 | CCOC(=O)/C=C/c1ccc(OCCCOC)cc1Oc1ncc(C(F)(F)F)cc1Cl
71 | 52 to 55 | CCCCCC(=O)c1cccc(OCc2ccc3ccccc3c2)c1
72 | 205 | COC(=O)OC[C@@H]1CC(c2ccc(-c3ccc(N4C[C@H](Cn5ccnn5)OC4=O)cc3F)cn2)=NO1

Row | melting point [°C] | Compound
73 | 151 to 152 | COc1cccc([C@H]2O[C@H](CC(=O)Nc3cc(CCC(=O)O)ccc3F)C(=O)N(CC(C)(C)CO)c3ccc(Cl)cc32)c1OC
74 | 198 to 200 | N#Cc1c(Br)[nH]c(Br)c1C(F)(F)F
75 | 343 to 347 | O=c1[nH]c2cc(C(F)(F)F)c([N+](=O)[O-])c(Cl)c2[nH]c1=O
76 | 56 to 58 | Cc1ncnn1-c1ccc([N+](=O)[O-])cc1F
77 | 165 | COC(=O)c1ccc(CBr)c(OCC(=O)c2ccc(OC)c(C34CC5CC(CC(C5)C3)C4)c2)c1
78 | 139 | COC(=O)CCN1CCC(=C2c3ccn(C)c3CCn3ncnc32)CC1
79 | 246 to 249 | Cc1n[nH]c2ccc(-c3ccc4nnn(Cc5ccc6ncccc6c5)c4n3)cc12
80 | 107 to 108 | Cn1nc(-c2c(Cl)cc(C(F)(F)F)cc2Cl)c([N+](=O)[O-])c1N
81 | 121 | CCOC(=O)c1c(N2CCN(C(=O)c3ccco3)CC2)c2cc(F)cnc2n(Cc2cccc(F)c2)c1=O
82 | 78 to 80 | CN1C(=O)C(c2cccc(OCC3CC3)c2)(c2cnn(CC(F)(F)F)c2)N=C1N (configuration not stated)
83 | 126 to 128 | CC(C)(O)CNC(=O)c1ccc(-c2ccc(C(CC3CCOCC3)c3ccc(S(=O)(=O)C4CC4)cc3)[nH]2)nc1 (configuration not stated)
84 | 105 to 107 | CCOC(=O)Cn1nnnc1S(=O)(=O)Cc1ccccc1
85 | 164 to 165 | C1=Nc2c(cnc3ccccc23)OC12CCCCC2
86 | 208 to 210 | CN(C(=O)OC(C)(C)C)c1cc(Oc2cc(C(C)(C)C)c(O)cc2C(C)(C)C)ccc1N
87 | 156 to 157 | O=C(O)COc1cccc2c(CNC(=O)COc3ccccc3)coc12
88 | 68 to 69 | C=CCOC(=O)c1ccc(CC(=O)OC(C)(C)C)cc1
89 | 121 to 125 | O=C1N(c2ccc(Cl)cc2Cl)Cc2cnc(Nc3ccccc3)nc2N1c1ccc(CO)cc1
90 | 264 | Cn1ncnc1COc1nn2c(-c3cnccn3)nnc2cc1-c1ccccc1
91 | 34 to 35.3 | C=CC(=O)OCCCCCCC[C@H]1CC[C@H](c2cccc(F)c2F)CC1
92 | 89 to 92.5 | CCCCCCCCCCCCCCCCCCOc1ccc(N(CC(=O)O)C(=O)OC(C)(C)C)cc1
93 | 84 to 85 | CCCCCCNC(=O)OC1CCN(C(=O)Oc2ccc(Oc3ccc(C)cc3)cc2)CC1
94 | 113 to 114 | CC(C)[Si](C)(C)CCCSCCNC(=O)n1cc(F)c(=O)[nH]c1=O
95 | 83 to 85 | Cc1cc(OCc2ccccc2)cc(OCCCC(C)C)c1C(=O)O
96 | 142 to 143 | CCCCCS(=O)(=O)NC(=O)/C=C/c1ccc(OCCOC)cc1Nc1ccc(C(F)(F)F)cc1
97 | 215 to 217 | O=C(Nc1ccc(C(=O)N2CCC(O)c3ccccc32)cc1)c1cc(Cl)cc(Cl)c1 (configuration not stated)
